Experimental findings from patent US20170107207A1, “AMINOPYRAZOLONE DERIVATIVE” (DAIICHI SANKYO COMPANY, LIMITED, priority 2014, published 2017) are described below.

SMILES strings stand for the structures.

Format in all cases: cell-based
Assay [1] deals with NCI-H460. Description: Cell growth inhibition test, NCI-H460. As to conditions: Homo sapiens, 72 h; NCI-H460, Lung cancer, 3 days, CellTiter-Glo. The procedure: (§1) A cell growth inhibition test was carried out by treating a cultured cancer cell line with a test compound for a given period and then counting the number of viable cells by CellTiter-Glo Luminescent Cell Viability Assay (manufactured by Promega Corp.).
(§2) The following cells were inoculated to a 384-well plate containing the compound prepared in advance at predetermined concentrations. […]
(§3) The cells thus inoculated were cultured at 37° C. for 3 days under 5% CO2. […] Then, luminescence intensity was measured using a plate reader.
(§4) The number of viable cells and luminescence intensity have been confirmed to correlate with each other. Therefore, the rate of cell growth was calculated according to the following expression: Rate of cell growth (T/C %) of a test compound-supplemented well=100×[(B−C)/(A−C)] wherein A represents the luminescence intensity (final culture date) of a test compound-free well; B represents the luminescence intensity (final culture date) of a test compound-containing well; and C represents the luminescence intensity (day of cell inoculation) of a well at the start of contact of the cells with the test compound.
(§5) T/C % at the concentration of each of the serially diluted test compounds was determined. […]
A general note: ATP-based viability assays read luminescence as a measure of living cells.

Assay [2] has as its system SNU-1. Description: Cell growth inhibition test, SNU-1. As to conditions: Homo sapiens, SNU1, 72 h; SNU-1, Stomach cancer, 3 days, CellTiter-Glo. The procedure:
as §1, §2, §3, §4, §5

Assay [3] relates to ES-2. Description: Cell growth inhibition test, ES-2. As to conditions: Homo sapiens, 72 h; ES-2, Ovary cancer, 3 days, CellTiter-Glo. The procedure: as §1, §2, §3, §4, §5
Assay [4] concerns DOHH-2. Description: Cell growth inhibition test, DOHH-2. As to conditions: Homo sapiens, 72 h; DOHH-2, Lymphoma, 3 days, CellTiter-Glo. The procedure:
as §1, §2, §3, §4, §5

Assay [5] has as its system HCT-15. Description: Cell growth inhibition test, HCT-15. As to conditions: Homo sapiens, 72 h; HCT-15, Large intestine cancer, 3 days, CellTiter-Glo. On the procedure:
as §1, §2, §3, §4, §5

In assay [6] the test system is CCRF-CEM. Description: Cell growth inhibition test, CCRF-CEM. As to conditions: Homo sapiens, 72 h, Leukemia, 3 days, CellTiter-Glo. The procedure:
as §1, §2, §3, §4, §5

In assay [7] the test system is A-498. Description: Cell growth inhibition test, A-498. As to conditions: Homo sapiens, A498, 72 h; A-498, Kidney cancer, 3 days, CellTiter-Glo. On the procedure:
as §1, §2, §3, §4, §5

Assay [8] deals with U266B1. Description: Cell growth inhibition test, U266B1. As to conditions: Homo sapiens, 72 h; U266B1, Multiple myeloma, 3 days, CellTiter-Glo. On the procedure: as §1, §2, §3, §4, §5
Assay [9] has as its system U2 OS. Description: Cell growth inhibition test, U2 OS. As to conditions: Homo sapiens, U2OS, 72 h, Bone and soft tissue tumor, 3 days, CellTiter-Glo. On the procedure:
as §1, §2, §3, §4, §5

Assay [10] has as its system DU 145. Description: Cell growth inhibition test, DU 145. As to conditions: Homo sapiens, 72 h; DU 145, Prostate cancer, 3 days, CellTiter-Glo. On the procedure:
as §1, §2, §3, §4, §5

Assay [11] has as its system SW620. Description: Cell growth inhibition test, SW620. As to conditions: Homo sapiens, SW-620, 72 h; SW620, Large intestine cancer, 3 days, CellTiter-Glo. On the procedure:
as §1, §2, §3, §4, §5

For assay [12], the system named is MCF7. Description: Cell growth inhibition test, MCF7. As to conditions: Homo sapiens, 72 h; MCF7, Breast cancer, 3 days, CellTiter-Glo. The procedure:
as §1, §2, §3, §4, §5

In assay [13] the test system is MDA-MB-468. Description: Cell growth inhibition test, MDA-MB-468. As to conditions: Homo sapiens, 72 h; MDA-MB-468, Breast cancer, 3 days, CellTiter-Glo. On the procedure:
as §1, §2, §3, §4, §5

For assay [14], the system named is HT-29. Description: Cell growth inhibition test, HT-29. As to conditions: Homo sapiens, 72 h; HT-29, Large intestine cancer, 3 days, CellTiter-Glo. The procedure:
as §1, §2, §3, §4, §5

Assay [15] concerns Hep G2. Description: Cell growth inhibition test, Hep G2. As to conditions: Homo sapiens, HepG2, 72 h; Hep G2, Liver cancer, 3 days, CellTiter-Glo. The procedure: as §1, §2, §3, §4, §5
Assay [16] concerns NALM-6. Description: Cell growth inhibition test, NALM-6. As to conditions: Homo sapiens, 72 h; NALM-6, Leukemia, 3 days, CellTiter-Glo. On the procedure:
as §1, §2, §3, §4, §5

For assay [17], the system named is RPMI 8226. Description: Cell growth inhibition test, RPMI 8226. As to conditions: Homo sapiens, 72 h; RPMI 8226, Multiple myeloma, 3 days, CellTiter-Glo. On the procedure:
as §1, §2, §3, §4, §5

Assay [18] deals with CAL-51. Description: Cell growth inhibition test, CAL-51. As to conditions: Homo sapiens, 72 h; CAL-51, Breast cancer, 3 days, CellTiter-Glo. The procedure:
as §1, §2, §3, §4, §5

Assay [19] has as its system SJSA-1. Description: Cell growth inhibition test, SJSA-1. As to conditions: Homo sapiens, 72 h; SJSA-1, Bone and soft tissue tumor, 3 days, CellTiter-Glo. The procedure: as §1, §2, §3, §4, §5

As a reminder, the GI50 is the concentration that inhibits growth by half.

As to `CCOc1ccc(Cl)cc1C(=O)NCC(C)(C)CC(=O)Nc1c([C@H](C)CN(C)C)n(C)n(-c2ccccc2)c1=O` [Example 68, 5-Chloro-N-[4-({5-[(1R)-2-(dimethylamino)-1-methylethyl]-1-methyl-3-oxo-2-phenyl-2,3-dihydro-1H-pyrazol-4-yl}amino)-2,2-dimethyl-4-oxobutyl]-2-ethoxybenzamide], the GI50 came to 310 nM in [1]; 230 nM in assay [2]; 480 nM in assay [3]; 240 nM in [4]; 2700 nM in assay [5]; 220 nM in assay [6]. The GI50 in assay [7] stood at 540 nM; in assay [8], 220 nM; in assay [9] it was 530 nM; in [10] it was 530 nM; in assay [11] it was 840 nM; in assay [12] it was 530 nM. In addition, the GI50 in assay [13] turned out to be 170 nM; in assay [14], 510 nM; in assay [15], 580 nM; in [16] it was 130 nM; in assay [17], 140 nM; in assay [18], 800 nM. The GI50 in assay [19] stood at 750 nM.
As for `CCOc1ncc(Cl)cc1C(=O)NCC(C)(C)CC(=O)Nc1c([C@H](C)CN(C)C)n(C)n(-c2ccccc2)c1=O` [Example 73, 5-Chloro-N-[4-({5-[(1R)-2-(dimethylamino)-1-methylethyl]-1-methyl-3-oxo-2-phenyl-2,3-dihydro-1H-pyrazol-4-yl}amino)-2,2-dimethyl-4-oxobutyl]-2-ethoxypyridine-3-carboxamide], the GI50 in assay [1] came out at 730 nM; in assay [2] it was 710 nM; in assay [3] it was 900 nM; in assay [4], 630 nM; in assay [5], 4000 nM; in assay [6], 590 nM. Besides, the concentration for 50% growth inhibition (GI50) in [7] was found to be 940 nM; in assay [8] it was 620 nM; in assay [9] it was 920 nM; in assay [10], 1100 nM; in [11], 1600 nM; in [12], 980 nM. Moreover, the GI50 in assay [13] turned out to be 510 nM; in assay [14], 1200 nM; in [15], 1100 nM; in assay [16], 330 nM; in assay [17], 180 nM; in assay [18], 1300 nM. In assay [19], this molecule displayed a GI50 of 1300 nM.
For `CCOc1cc(F)c(Cl)cc1C(=O)NCC(C)(C)CC(=O)Nc1c(COC)n(C)n(-c2ccccc2)c1=O` [Example 113, 5-Chloro-2-ethoxy-4-fluoro-N-(4-{[5-(methoxymethyl)-1-methyl-3-oxo-2-phenyl-2,3-dihydro-1H-pyrazol-4-yl]amino}-2,2-dimethyl-4-oxobutyl)benzamide], the GI50 in [1] amounted to 550 nM; in assay [2], 580 nM; in assay [3], 750 nM; in [4], 460 nM; in assay [5] it was 800 nM; in assay [6], 530 nM. The GI50 in [7] was found to be 430 nM; in assay [8] it was 440 nM; in assay [9], 640 nM; in assay [10], 650 nM; in assay [11], 910 nM; in assay [12], 750 nM. Further, the GI50 was 320 nM in assay [13]; 920 nM in assay [14]; 380 nM in assay [15]; 270 nM in assay [16]; 160 nM in [17]; 620 nM in assay [18]. In addition, the GI50 in assay [19] was 870 nM.
